Assay results taken from the supplement of paper PMC4862054.

What was measured:
Conditions in all cases: incubation time: 72 h
HCC1599 = assay: drug sensitivity score (DSS), CellTiter-Glo (DSS (AUC-based score)); higher = stronger drug effect (viability inhibition or cytotoxicity); extreme values may be limits of the assay
In short: (§1)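 Compound was dispensed into 384-well plates at 5 concentrations in 10-fold steps spanning a 10,000-fold range chosen for each compound, and 20 µl of breast cancer cell suspension was added before 72 h of incubation. CellTox Green fluorescence was read at 485/520 nm, followed by CellTiter-Glo luminescence after 10 min at room temperature. Values on each plate were normalised to 0.1 % DMSO and a positive kill control. The drug sensitivity score came from the area under the fitted dose-response curve.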

CAL-51 [1] = assay: as above
In short: as §1

MDA-MB-231 [2] = assay: as above
In short: as §1

CAL-120 = assay: as above
In short: as §1

CAL-148 [3] = assay: as above
In short: as §1

DU-4475 [4] = assay: as above
In short: as §1

MDA-MB-453 [5] = assay: as above
In short: as §1

CAL-85-1 [6] = assay: as above
In short: as §1

HCC1937 = assay: normalised viability (% of control), CellTiter-Blue; higher = more viable cells (about 100 = DMSO control)
In short: (§2)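 Vehicle (100) and a positive kill control (0) anchored the normalisation of each plate, and Z'-factor was used for quality control. Breast cancer cell lines in 20 µl suspension were incubated 72 h over compound in 5 µl medium in 384-well plates, followed by CellTiter-Blue at 560/590 nm. The value is normalised viability at a single listed concentration of the series.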

SK-BR-3 = assay: as above
In short: as §2

Hs578T = assay: as above
In short: as §2

CAL-51 [7] = assay: as above
In short: as §2

MDA-MB-231 [8] = assay: as above
In short: as §2

BT-549 = assay: as above
In short: as §2

MDA-MB-468 = assay: as above
In short: as §2

HDQ-P1 = assay: as above
In short: as §2

CAL-148 [9] = assay: as above
In short: as §2

MFM-223 = assay: as above
In short: as §2

DU-4475 [10] = assay: as above
In short: as §2

HCC1143 = assay: as above
In short: as §2

BT-474 = assay: as above
In short: as §2

MDA-MB-453 [11] = assay: as above
In short: as §2

MDA-MB-436 = assay: as above
In short: as §2

CAL-85-1 [12] = assay: as above
In short: as §2

COc1cc2c(Oc3ccc4[nH]c(C)cc4c3F)ncnc2cc1OCCCN1CCCC1 [Cediranib]
Conditions	drug sensitivity score
CAL-51 [1]	0
CAL-85-1 [6]	0
CAL-120	0
CAL-148 [3]	0
DU-4475 [4]	0
HCC1599	0
MDA-MB-231 [2]	0
MDA-MB-453 [5]	0

normalised viability [%]
Conditions	0.3 nM	1 nM	3 nM	10 nM	100 nM	1000 nM
BT-474	–	109	–	–	101	91.1
BT-549	–	108	–	–	104	70.8
CAL-51 [7]	90.5	–	88.7	88.6	–	–
CAL-85-1 [12]	104	–	96.5	99.8	–	–
CAL-148 [9]	103	–	92.8	107	–	–
DU-4475 [10]	103	–	80.4	87.3	–	–
HCC1143	–	128	–	–	120	112
HCC1937	–	66.2	–	–	78.5	83.4
HDQ-P1	84.8	–	90.6	100	–	–
Hs578T	–	110	–	–	106	92.2
MDA-MB-231 [8]	–	84.7	–	–	83.7	92
MDA-MB-436	–	85.6	–	–	92	91.8
MDA-MB-453 [11]	85.7	–	97	84.7	–	–
MDA-MB-468	–	92.5	–	–	89.7	95.2
MFM-223	–	99.9	–	–	87	47.2
SK-BR-3	–	100	–	–	95.7	104

Cc1ccc(-c2cc(C(F)(F)F)nn2-c2ccc(S(N)(=O)=O)cc2)cc1 [Celecoxib]
Conditions	drug sensitivity score
CAL-51 [1]	0
CAL-85-1 [6]	0
CAL-120	0
CAL-148 [3]	0
DU-4475 [4]	0
HCC1599	0
MDA-MB-231 [2]	0
MDA-MB-453 [5]	0

normalised viability [%]
Conditions	3 nM	10 nM	30 nM	100 nM	1000 nM	10000 nM
BT-474	–	111	–	–	97.3	105
BT-549	–	86.6	–	–	106	78.4
CAL-51 [7]	99	–	98.3	94.4	–	–
CAL-85-1 [12]	91.6	–	75	76.7	–	–
CAL-148 [9]	86.8	–	97	91.2	–	–
DU-4475 [10]	83.8	–	93.1	106	–	–
HCC1143	–	90.3	–	–	95.5	86
HCC1937	–	85.3	–	–	80.3	79.4
HDQ-P1	104	–	93.5	85	–	–
Hs578T	–	113	–	–	108	92.6
MDA-MB-231 [8]	–	96.2	–	–	86.7	99.6
MDA-MB-436	–	99.3	–	–	77.8	80.1
MDA-MB-453 [11]	111	–	97.5	103	–	–
MDA-MB-468	–	96.6	–	–	107	95
MFM-223	–	95.9	–	–	92.1	86.3
SK-BR-3	–	87.6	–	–	90.2	79.7
